Source: US7388006B2, “Non-steroidal progesting” (Bayer Schering Pharma AG, priority 2002, dated 2008)

Assays:
PR-A = assay type: cell-based
Procedure: The method for screening for PR isoform-specific progestins according to the present invention is carried out with first and second SK-N-MC cells stably transfected with a plasmid expressing the HPR-A (first cells) or the hPR-B (second cells) and the LUC reporter gene linked to the hormonally responsive MTV promoter.
The cells are cultured in Minimum Essential Medium with Earl's Salts (S-MEM, without L-glutamine; Gibco BRL, no. 21090-022), supplemented with 10% fetal calf serum (FCS), penicillin 100U/streptomycin 100 μg/ml (Biochrom, no. A2213), L-glutamine 4 mmol/l (Gibco BRL, no. 25030-024), sodium pyruvate 1 mmol/l (Biochrom, no. L0473) and 1×non-essential amino acids (Biochrom, no. K0293) at a temperature of 37° C. and in an atmosphere of 5% carbon dioxide.
For the transcription assay, the cells are seeded onto 96-well dishes (2×10^4 cells/dish) and cultured in a medium as described above, with the exception that the FCS is replaced by a 3% charcoal stripped FCS. 48 hours later, cells are contacted with prediluted test compounds. For determination of agonistic activity, cells are cultured in the presence of 6 increasing concentrations (10^−6 to 10^−11 mol/l) of test progestins. As a positive control for reporter gene induction cells are treated with 10^−6 to 10^−11 mol/l R5020 (promegestone). As a negative control for reporter gene induction, cells are cultured in 1% ethanol.
After incubation with test progestins for 24 hours, the medium is removed and cells are lysed with 20 μl of lysis buffer (Luciferase Assay System E 153A; Promega) and under agitation of the plate for 101 min. After addition of 30 μl of luciferase reagent (Luciferase Assay System E 151A+152A; Promega) within 30 seconds per plate, the activity of the luciferase reporter gene product is determined in the cell lysates by means of a Microlite ML 3000 microtiter plate luminometer (Dynatech) in cycle mode.
Evaluation of the response gives the efficacy [%], and evaluation of the EC50s values gives the potency [nM]. Calculation of the agonistic activity is conducted as follows:
The LUC activity [%] for the measured data points is calculated as follows:
[formula] wherein CI=100% stimulation (R5020, 10^−7 mol/l) and CO=0% stimulation (ethanol, 1%).
Thus, the efficacy [%] is calculated according to: […]
The potency [nM], i.e. the EC50, is determined graphically.

androgen receptor (AR) = biological target: T1, androgen receptor (AR) (Homo sapiens, UniProt P10275); test: Binding affinity for the androgen receptor
T1 sequence (P10275 1-920): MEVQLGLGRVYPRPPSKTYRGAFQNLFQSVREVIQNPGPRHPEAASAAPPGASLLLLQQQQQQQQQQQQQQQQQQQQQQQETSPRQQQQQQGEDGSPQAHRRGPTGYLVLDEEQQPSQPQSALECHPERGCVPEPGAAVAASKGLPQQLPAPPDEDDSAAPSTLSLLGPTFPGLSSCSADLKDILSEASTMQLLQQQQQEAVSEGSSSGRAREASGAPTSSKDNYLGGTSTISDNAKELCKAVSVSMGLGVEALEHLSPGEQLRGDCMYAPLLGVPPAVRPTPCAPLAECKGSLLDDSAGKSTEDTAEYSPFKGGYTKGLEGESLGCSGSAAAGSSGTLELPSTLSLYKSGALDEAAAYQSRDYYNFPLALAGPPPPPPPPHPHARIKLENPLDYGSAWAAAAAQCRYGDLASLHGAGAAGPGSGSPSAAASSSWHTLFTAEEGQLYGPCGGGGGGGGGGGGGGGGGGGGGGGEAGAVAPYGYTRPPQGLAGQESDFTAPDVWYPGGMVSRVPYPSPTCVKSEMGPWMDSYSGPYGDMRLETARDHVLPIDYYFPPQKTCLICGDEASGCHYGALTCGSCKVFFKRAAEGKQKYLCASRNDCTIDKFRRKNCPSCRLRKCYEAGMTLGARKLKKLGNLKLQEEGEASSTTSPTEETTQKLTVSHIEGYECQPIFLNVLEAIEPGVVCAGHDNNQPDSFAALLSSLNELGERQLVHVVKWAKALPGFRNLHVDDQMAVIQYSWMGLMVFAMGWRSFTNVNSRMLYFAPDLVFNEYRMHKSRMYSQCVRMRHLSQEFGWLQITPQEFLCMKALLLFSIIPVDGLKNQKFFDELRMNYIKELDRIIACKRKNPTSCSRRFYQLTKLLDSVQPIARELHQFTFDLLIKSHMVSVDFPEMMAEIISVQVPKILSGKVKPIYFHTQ

[1] = system: uterine growth in ovariectomized estradiol-treated rats; test: Antiuterotropic activity in the rat (uterine weight, epithelial height); assay type: in vivo; conditions: for Functional antiestrogenic effect (uterine weight gain, epithelial cell height): 3 days
Text: Compounds with estrogenic activity induce uterine growth, resulting in an increase in uterine weight. They also induce a characteristic change of the appearance of the endometrial epithelium as indicated by an increase in epithelial height. PR modulators counteract estrogenic activity by inhibiting uterine weight gain and epithelial cell proliferation. This effect is sometimes referred to as “functional antiestrogenic” effect.
To test for antiuterotropic activity of the most preferred progestin according to the present invention, i.e., compound ((+)-1), ovariectormized rats are treated for 3 days with 0.3 μg/kg/d estradiol (E2) and in addition with increasing doses of ((+)-1) (cf. FIG. 4). Each test group shown in FIG. 4 consists of 10 rats, with the exception of one group (cf. FIG. 4, bottom diagram, 150 μg/kg of ((+)-1)), indicated by “#”), which consists of nine rats.
Changes in uterine weight, luminal epithelial height and the status of cell proliferation and keratinization of the vaginal smear servs as parameters for estrogenic activity. In combination with ((+)-1), decreases in estrogen-stimulated uterine weight gain and luminal epithelial height are parameters for antiestrogenic activity (cf. FIG. 4).
For the reference group (estradiol (E2)-treated), stimulation of the uterine weight and the luminal epithelial height in comparison to the vehicle control was calculated as follows: […]
In the antiestrogen assay, inhibition of uterine weight or luminal epithelial height in comparison to the effect seen with the reference compound (estradiol) was calculated as follows: […]
For statistical analysis, the 95% confidence interval was calculated using a software which was developed by the Biostatistical Department of Schering AG. The asterisks indicate a significant difference (p<0.05).

For `O=C1OCc2cc(NC(=O)C(O)(CC3(c4cc(C(F)(F)F)ccc4F)CC3)C(F)(F)F)ccc21` (single isomer, unassigned; (+)) [((+)-1), (+)-5-{2-hydroxy-3-[1-(2-fluoro-5-trifluoromethylphenyl)-cyclopropyl]-2-trifluoromethyl-propionylamino}-phthalide], the “Δ agonism efficacies (A-B)” value (PR-A; PR-A efficacy minus PR-B efficacy) was 64, the “PR isoform selectivity in words” value (PR-A; PR-A versus PR-B) was “selective PR-A agonist” and the “Binding affinity for the androgen receptor (AR)” value (androgen receptor (AR)) was “moderate binding affinity”. The “Functional antiestrogenic effect (uterine weight gain, epithelial cell height)” value ([1]; 5 μg/kg/d with estradiol) was “submaximum effect”, the “Functional antiestrogenic effect (uterine weight gain, epithelial cell height)” value ([1]; 15 μg/kg/d with estradiol) was “Maximum effect” and the “Functional antiestrogenic effect, in words” value ([1]; in combination with estradiol, FIG. 4) was “strong functional antiestrogenic effect”.
